# Test results: patent US12174198B2, “Methods of characterizing condensate-associated characteristics of compounds and uses thereof” (Dewpoint Therapeutics, Inc., priority 2019, dated 2024)
# Key:
# Format in all cases: physicochemical
# [1] = target: T1, FUS-SNAP condensates (Homo sapiens, UniProt P35637); test: Fluorescence imaging of dye partitioning in FUS-SNAP condensates (I-in, I-out); details: for Ratio of intensity inside:outside FUS-SNAP Condensates Day 1 / Ratio of intensity inside:outside FUS-SNAP Condensates Day 2 / Ratio of intensity inside:outside FUS-SNAP Condensates Average: I-in:I-out; for Ratio of intensity inside:outside FUS-SNAP Condensates Day 1 / Ratio of intensity inside:outside FUS-SNAP Condensates Day 2 / Ratio of intensity inside:outside FUS-SNAP Condensates Average / Intensity Inside with Dye Average / Intensity Inside with Dye 1 / Intensity Inside with Dye 2 / Intensity Inside with Dye 3 / Intensity Outside with Dye Average / Intensity Outside with Dye 1 / Intensity Outside with Dye 2 / Intensity Outside with Dye 3: 10 μM dye; for Ratio of intensity inside:outside FUS-SNAP Condensates Average: average of two days; for Intensity Inside with Dye Average / Intensity Inside with Dye 1 / Intensity Inside with Dye 2 / Intensity Inside with Dye 3 / Intensity Inside Dye-No Dye: inside FUS-SNAP condensate; for Intensity Inside with Dye Average / Intensity Inside with Dye 1 / Intensity Inside with Dye 2 / Intensity Inside with Dye 3 / Intensity Outside with Dye Average / Intensity Outside with Dye 1 / Intensity Outside with Dye 2 / Intensity Outside with Dye 3: 5 μM protein; for Intensity Inside with Dye Average / Intensity Outside with Dye Average: average of three images; for Intensity Inside with Dye Average / Intensity Inside with Dye 1 / Intensity Inside with Dye 2 / Intensity Inside with Dye 3 / Intensity Inside Dye-No Dye / Intensity Outside with Dye Average / Intensity Outside with Dye 1 / Intensity Outside with Dye 2 / Intensity Outside with Dye 3 / Intensity Outside (Dye-No Dye): one day of experiments; for Intensity Inside with Dye 1 / Intensity Outside with Dye 1: image 1; for Intensity Inside with Dye 2 / Intensity Outside with Dye 2: image 2; for Intensity Inside with Dye 3 / Intensity Outside with Dye 3: image 3; for Intensity Inside Dye-No Dye / Intensity Outside (Dye-No Dye): background corrected; for Intensity Outside with Dye Average / Intensity Outside with Dye 1 / Intensity Outside with Dye 2 / Intensity Outside with Dye 3 / Intensity Outside (Dye-No Dye): outside FUS-SNAP condensate
# T1 sequence (P35637 1-526): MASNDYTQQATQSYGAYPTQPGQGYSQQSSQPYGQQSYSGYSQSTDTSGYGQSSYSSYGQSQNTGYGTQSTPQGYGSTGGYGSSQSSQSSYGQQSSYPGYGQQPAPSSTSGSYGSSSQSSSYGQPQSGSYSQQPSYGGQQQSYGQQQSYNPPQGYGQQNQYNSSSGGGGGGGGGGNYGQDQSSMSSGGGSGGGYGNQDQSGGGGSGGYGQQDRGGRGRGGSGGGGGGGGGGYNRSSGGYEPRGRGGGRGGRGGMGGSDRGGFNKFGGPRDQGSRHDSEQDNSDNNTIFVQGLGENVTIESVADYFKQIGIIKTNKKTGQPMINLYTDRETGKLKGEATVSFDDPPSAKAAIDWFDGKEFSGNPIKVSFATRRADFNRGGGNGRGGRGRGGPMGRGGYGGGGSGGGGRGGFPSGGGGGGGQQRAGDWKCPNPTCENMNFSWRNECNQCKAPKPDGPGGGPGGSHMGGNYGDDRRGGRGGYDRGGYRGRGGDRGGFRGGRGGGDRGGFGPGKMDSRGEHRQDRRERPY
# Procedure: (§1) All dye-stocks were stored as 1 mM solutions in 100% DMSO. The dyes were dissolved in dilution buffer (DB: 14.7 mM Tris, pH 7.25, 1 mM DTT) to yield 11.765 μM dye in 1.1765 DMSO. 17 μl of dye was distributed in a 384 well non-binding plate (Greiner).
# (§2) Either SNAP-tagged FUS protein or tag-free PGL-3 protein was thawed at room temperature for at least 10 min, and the buffer was exchanged to partitioning buffer (PB: 50 mM Tris pH 7.25, 500 mM KCl, 5% Glycerol, and 1 mM DTT). The protein was then diluted to 33.3 μM in PB. 3 μl of protein solution were added to the 384 well plate to initiate phase separation, yielding 20 μl of 5 μM protein and 10 μM dye in 75 mM KCl, 0.75% Glycerol, 20 mM Tris, 1 mM DTT, and 1% DMSO or for no dye control reactions, 20 μl of 5 μM protein in 75 mM KCl, 0.75% Glycerol, 20 mM Tris, 1 mM DTT.
# (§3) A spinning disk confocal microscope was used to acquire images of the samples. A 60×oil high-NA objective lens was used to capture the condensate droplets. The laser power was set to 20% and the exposure times were adjusted to the fluorescence emission intensity specific for each dye. Exposure times ranged from 1-1000 ms. Appropriate filter settings were used, matching the excitation and emission spectra of the respective dyes. Three images per well were taken. The background signal of protein droplets in the absence of dye was recorded for all applied imaging conditions.
# (§4) Fluorescence intensity was measured inside one exemplary target condensate (Intensity inside, I-in) per image and in a region next to the exemplary target condensate (Intensity outside, I-out) by hand using the image analysis software Fiji. An example depicting the regions measured is shown FIG. 2A. Three I-in and three I-out values were measured in total for each dye in each experiment and were averaged. The measured I-in and I-out values for FUS-SNAP condensates on one day of experiments are shown in Table 2 and Table 3, respectively. The measured I-in and I-out values for PGL-3 condensates on one day of experiments are shown in Table 4 and Table 5, respectively. All values were background corrected, based on the background images (no dye controls) taken with the same microscope conditions.
# (§5) The ratios of the average intensity measured in the target condensates and outside of the target condensates were calculated by dividing I-in by I-out, although dividing I-out by I-in could also have been used. The I-in:I-out ratios determined from the two different days of experiments were then averaged. The average I-in:I-out ratios for FUS-SNAP condensates are shown in FIG. 3 and the average I-in:I-out ratios for PGL-3 condensates are shown in FIG. 4. The standard deviation between the two experiments is represented by the error bars in FIG. 3 and FIG. 4.
# [2] = system: FUS-SNAP condensates versus PGL-3 condensates; test: Condensate preference: ratio of FUS-SNAP I-in:I-out to PGL-3 I-in:I-out; details: average FUS-SNAP I-in:I-out divided by average PGL-3 I-in:I-out
# Procedure: as §5
# [3] = target: T2, PGL-3 condensates (Caenorhabditis elegans, UniProt G5EBV6); test: Fluorescence imaging of dye partitioning in PGL-3 condensates (I-in, I-out); details: for Ratio of intensity inside:outside PGL-3 Condensates Day 1 / Ratio of intensity inside:outside PGL-3 Condensates Day 2 / Ratio of intensity inside:outside PGL-3 Condensates Average: I-in:I-out; for Ratio of intensity inside:outside PGL-3 Condensates Day 1 / Ratio of intensity inside:outside PGL-3 Condensates Day 2 / Ratio of intensity inside:outside PGL-3 Condensates Average / Intensity Inside with Dye Average / Intensity Inside with Dye 1 / Intensity Inside with Dye 2 / Intensity Inside with Dye 3 / Intensity Outside with Dye Average / Intensity Outside with Dye 1 / Intensity Outside with Dye 2 / Intensity Outside with Dye 3: 10 μM dye; for Ratio of intensity inside:outside PGL-3 Condensates Average: average of two days; for Intensity Inside with Dye Average / Intensity Inside with Dye 1 / Intensity Inside with Dye 2 / Intensity Inside with Dye 3 / Intensity Inside Dye-No Dye: inside PGL-3 condensate; for Intensity Inside with Dye Average / Intensity Inside with Dye 1 / Intensity Inside with Dye 2 / Intensity Inside with Dye 3 / Intensity Outside with Dye Average / Intensity Outside with Dye 1 / Intensity Outside with Dye 2 / Intensity Outside with Dye 3: 5 μM protein; for Intensity Inside with Dye Average / Intensity Outside with Dye Average: average of three images; for Intensity Inside with Dye Average / Intensity Inside with Dye 1 / Intensity Inside with Dye 2 / Intensity Inside with Dye 3 / Intensity Inside Dye-No Dye / Intensity Outside with Dye Average / Intensity Outside with Dye 1 / Intensity Outside with Dye 2 / Intensity Outside with Dye 3 / Intensity Outside (Dye-No Dye): one day of experiments; for Intensity Inside with Dye 1 / Intensity Outside with Dye 1: image 1; for Intensity Inside with Dye 2 / Intensity Outside with Dye 2: image 2; for Intensity Inside with Dye 3 / Intensity Outside with Dye 3: image 3; for Intensity Inside Dye-No Dye / Intensity Outside (Dye-No Dye): background corrected; for Intensity Outside with Dye Average / Intensity Outside with Dye 1 / Intensity Outside with Dye 2 / Intensity Outside with Dye 3 / Intensity Outside (Dye-No Dye): outside PGL-3 condensate
# T2 sequence (G5EBV6 1-693): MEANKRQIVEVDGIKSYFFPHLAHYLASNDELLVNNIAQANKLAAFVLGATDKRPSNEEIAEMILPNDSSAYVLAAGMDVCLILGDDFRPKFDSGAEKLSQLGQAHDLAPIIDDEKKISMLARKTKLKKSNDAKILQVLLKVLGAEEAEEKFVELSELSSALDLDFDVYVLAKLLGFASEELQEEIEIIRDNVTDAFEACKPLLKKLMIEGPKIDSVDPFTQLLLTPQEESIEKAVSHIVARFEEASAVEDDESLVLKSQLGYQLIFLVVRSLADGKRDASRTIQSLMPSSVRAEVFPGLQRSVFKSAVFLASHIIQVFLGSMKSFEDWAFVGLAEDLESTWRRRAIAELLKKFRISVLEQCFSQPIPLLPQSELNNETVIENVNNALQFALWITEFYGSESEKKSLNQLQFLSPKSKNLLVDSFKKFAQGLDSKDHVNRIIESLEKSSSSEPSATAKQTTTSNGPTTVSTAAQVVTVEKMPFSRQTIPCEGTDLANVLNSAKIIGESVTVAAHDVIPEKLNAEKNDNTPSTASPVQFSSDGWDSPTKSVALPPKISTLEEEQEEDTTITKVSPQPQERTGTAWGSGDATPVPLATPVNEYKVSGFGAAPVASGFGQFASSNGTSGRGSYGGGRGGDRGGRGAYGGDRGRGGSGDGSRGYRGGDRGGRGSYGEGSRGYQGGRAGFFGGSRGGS
# Procedure: as §1, §2, §3, §4, §5
Compound,Ratio of intensity inside:outside FUS-SNAP Condensates Day 1 [1],Ratio of intensity inside:outside FUS-SNAP Condensates Day 2 [1],Ratio of intensity inside:outside FUS-SNAP Condensates Average [1],Intensity Inside with Dye Average [1],Intensity Inside with Dye 1 [1],Intensity Inside with Dye 2 [1],Intensity Inside with Dye 3 [1],Intensity Inside Dye-No Dye [1],Intensity Outside with Dye Average [1],Intensity Outside with Dye 1 [1],Intensity Outside with Dye 2 [1],Intensity Outside with Dye 3 [1],Intensity Outside (Dye-No Dye) [1],Ratio of FUS-SNAP:PGL-3 [2],Ratio of intensity inside:outside PGL-3 Condensates Day 1 [3],Ratio of intensity inside:outside PGL-3 Condensates Day 2 [3],Ratio of intensity inside:outside PGL-3 Condensates Average [3],Intensity Inside with Dye Average [3],Intensity Inside with Dye 1 [3],Intensity Inside with Dye 2 [3],also measured
"CC(=O)N[C@H]1[C@H](Oc2ccc3c(c2)Oc2cc(O)ccc2C32OC(=O)c3ccccc32)O[C@H](CO)[C@H](O)[C@@H]1O (stereo partly drawn) [Dye 5, Fluorescein mono-(N-acetyl-β-D-galactosaminide)]",1.2,1.4,1.3,1896.7,2046.8,2005.1,1638.1,1399.1,1272.5,1319.4,1306.9,1191.0,1132.4,1.3,1.0,1.1,1.1,1834.5,1912.6,1794.0,Intensity Inside with Dye 3 [3]: 1797.0; Intensity Inside Dye-No Dye [3]: 1237.3; Intensity Outside with Dye Average [3]: 1392.9; Intensity Outside with Dye 1 [3]: 1439.0; Intensity Outside with Dye 2 [3]: 1386.2; Intensity Outside with Dye 3 [3]: 1353.5; Intensity Outside (Dye-No Dye) [3]: 1230.0
"O=C(CCCC[C@@H]1SCC2NC(=O)NC21)NCCNC(=O)c1ccc(-c2c3ccc(=O)cc-3oc3ccc(O)cc23)c(C(=O)O)c1 (stereo partly shown) [Dye 13, Biotin-4-Fluorescein]",2.1,2.1,2.1,4669.4,4600.2,4189.8,5218.3,4534.2,2242.3,2286.6,2244.6,2195.6,2138.2,2.0,1.1,1.1,1.1,3038.9,2939.4,3141.8,Intensity Inside with Dye 3 [3]: 3035.4; Intensity Inside Dye-No Dye [3]: 2892.4; Intensity Outside with Dye Average [3]: 2837.5; Intensity Outside with Dye 1 [3]: 2781.8; Intensity Outside with Dye 2 [3]: 2905.7; Intensity Outside with Dye 3 [3]: 2825.1; Intensity Outside (Dye-No Dye) [3]: 2732.2
Polysucrose 40-fluorescein isothiocyanate conjugate [Dye 10],1.0,1.1,1.1,5756.6,6139.7,6105.5,5024.6,5621.4,5505.3,5878.5,5846.2,4791.0,5401.2,1.1,1.0,0.9,0.9,5674.9,5747.5,6281.4,"Enrichment of dye in the condensate (fluorescent images) ([1]; FIG. 1, exemplary images of Example 2, condensate type not stated): not enriched in the condensate; Intensity Inside with Dye 3 [3]: 4996.0; Intensity Inside Dye-No Dye [3]: 5528.4; Intensity Outside with Dye Average [3]: 5893.8; Intensity Outside with Dye 1 [3]: 5900.4; Intensity Outside with Dye 2 [3]: 6581.6; Intensity Outside with Dye 3 [3]: 5199.5; Intensity Outside (Dye-No Dye) [3]: 5788.5"
